Experimental data from patent US20240352536A1, “Assay for Predicting Risk of Capecitabine-Induced Toxicity in a Subject” (Oxford University Innovation Ltd., priority 2021, published 2024).

Columns and labels:
[1] = cited from earlier work
[2] = target: T1, dihydropyrimidine dehydrogenase (DPYD) (Homo sapiens, UniProt Q12882); conditions: cited from earlier work
T1 construct: degraded in the liver by dihydropyrimidine dehydrogenase (DPYD); host or cells: liver (in vivo, endogenous enzyme)
T1 sequence (Q12882 4-1025): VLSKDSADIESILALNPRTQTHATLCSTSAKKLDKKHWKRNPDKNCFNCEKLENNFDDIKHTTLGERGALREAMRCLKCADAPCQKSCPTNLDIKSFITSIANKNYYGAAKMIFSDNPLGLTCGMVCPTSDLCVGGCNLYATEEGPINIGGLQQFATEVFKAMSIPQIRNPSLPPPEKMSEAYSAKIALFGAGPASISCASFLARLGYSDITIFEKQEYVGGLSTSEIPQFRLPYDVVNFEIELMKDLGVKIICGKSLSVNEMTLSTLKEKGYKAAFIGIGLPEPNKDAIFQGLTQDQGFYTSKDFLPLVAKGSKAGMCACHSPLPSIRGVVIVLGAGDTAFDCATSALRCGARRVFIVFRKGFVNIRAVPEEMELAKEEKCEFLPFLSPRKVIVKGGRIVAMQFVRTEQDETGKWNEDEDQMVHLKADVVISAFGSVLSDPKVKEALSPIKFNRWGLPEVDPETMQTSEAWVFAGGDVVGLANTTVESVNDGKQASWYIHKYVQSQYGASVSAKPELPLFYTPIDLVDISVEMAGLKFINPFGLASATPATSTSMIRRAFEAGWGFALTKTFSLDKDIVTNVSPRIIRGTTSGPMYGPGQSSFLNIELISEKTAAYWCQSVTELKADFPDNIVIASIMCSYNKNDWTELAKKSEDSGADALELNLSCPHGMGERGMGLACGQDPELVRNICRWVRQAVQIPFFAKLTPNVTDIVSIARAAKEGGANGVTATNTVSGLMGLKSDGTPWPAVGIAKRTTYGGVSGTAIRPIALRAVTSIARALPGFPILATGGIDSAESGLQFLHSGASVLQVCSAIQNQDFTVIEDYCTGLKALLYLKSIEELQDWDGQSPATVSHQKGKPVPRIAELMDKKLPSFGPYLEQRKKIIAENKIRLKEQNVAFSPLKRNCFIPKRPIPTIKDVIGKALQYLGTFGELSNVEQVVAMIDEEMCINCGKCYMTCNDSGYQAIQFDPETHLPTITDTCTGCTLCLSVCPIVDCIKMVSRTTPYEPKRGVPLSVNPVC

[3] = QUASAR2 trial: adverse events graded after each treatment cycle with NCI CTCAE version 3.0; type: in vivo, human
Method: The QUASAR2 study (http://www.octo-oxford.org.uk/alltrials/infollowup/q2.html; http://www.controlled-trials.com/ISRCTN45133151/) is a phase III randomised controlled trial of capecitabine (Xeloda) (1250 mg/m2 twice daily d1-14 every 3 weeks, total of 8 cycles)+/−bevacizumab (7.5 mg/kg every three weeks) following resection of stage II/III CRC. Patients were entered into the study between July 2005 and December 2011 at 123 UK and 81 non-UK sites. Of 1119 patients with blood collected as of July 2010, 1046 were selected for study based on availability of clinical data and informed consent.
Adverse events were graded following each treatment cycle using the NCI Common Toxicity Criteria for Adverse Events (CTCAE) version 3.0. Common capecitabine-induced toxicities—diarrhoea, nausea and vomiting, mucositis/stomatitis, neutropaenia, thrombocytopaenia, and HFS—were analysed individually and also in combination as “global” toxicity. Adverse events were categorised as low (CTCAE grade 0/1/2) and high (CTCAE grade 3/4/5 at any treatment cycle). Hypertension and proteinuria were clearly related to bevacizumab (˜10-fold higher incidence) and were not included in the analysis.
Genome wide SNP genotypes and per treatment cycle toxicity data was available for 930 patients with stage II and III colorectal cancer treated with capecitabine in the QUASAR2 trial. […] Genotype data was imputed using IMPUTE2 and the UK10K and 1000 genomes merged reference panels. Common Terminology Criteria for Adverse Events (CTCAE) v3.0 was used to grade toxicity events. Patients with ≥grade 3 toxicities in the first two treatment cycles and across all cycles were coded as cases for analysis. Binary coded variables were generated for capecitabine-induced toxicities: diarrhoea, haematological, hand-foot syndrome, mucositis and vomiting. The mucositis toxicity variable captured cases with mucositis and/or stomatitis and haematological toxicity consisted of neutropenia and/or thrombocytopenia cases. A global toxicity phenotype was also analysed with cases having any grade 3 event of one of the aforementioned toxicities. The study was powered at 80% to detect variants with MAF>10% having effect sizes≥2. Association testing was performed using SNPTEST v2.5. The two QUASAR2 trial arms (capecitabine alone and capecitabine plus bevacizumab) were analysed separately and then meta-analysed using META v1.7. […] Gene annotation of the outputs was performed using Variant Effect Predictor (VEP) and ANNOVAR to determine the impact of each variant and distance to the nearest gene. Top independent SNPs were identified from multi-SNP-based conditional and joint association (COJO) analysis using Genome-wide Complex Trait Analysis (GCTA). V1.93.2. Receiver operator curve (ROC) analysis was performed in statistical software R.

[4] = early onset, Cycles 1 & 2 (n = 930), QUASAR 2

In the case of `O=c1[nH]cc(F)c(=O)[nH]1` [5-FU, 5-fluorouracil], the “mortality (Grade 5, CTCAE version 3.0) associated with use” value ([1]; overall) is listed as 0.5-1.0%, the “patients who suffer substantial toxicities (Grade 3 or above, CTCAE version 3.0)” value ([1]; patients administered 5-FU-based therapy) is listed as 10-30% and the fatality rate ([1]; patients with colorectal cancer, serious toxicities from 5-FU) is listed as “approximately 1%”. The “share of patients who experienced serious (CTCAE≥grade 3) toxicities” value ([1]; patients with colorectal cancer) was “Approximately a third” and the “share of drug degraded in the liver by DPYD prior to activation” value [2] was about 80%.
In the case of `CCCCCOC(=O)Nc1nc(=O)n(C2OC(C)C(O)C2O)cc1F` (centres unmarked) [capecitabine, pentyl [1-(3,4-dihydroxy-5-methyltetrahydrofuran-2-yl)-5-fluoro-2-oxo-1H-pyrimidin-4-yl]carbamate], the “share of patients who suffer dose-limiting levels of drug-induced adverse events” value ([1]; capecitabine patients) is given as “approximately one third”, the “mortality from rapid onset of toxicity relative to infusional and bolus 5-FU regimens (0.5% to 2%)” value ([1]; capecitabine schedules) is given as “about half that number” and the “Diarrhoea, Grade 0-2 (%)” value [3, 4] is given as 92.9%. The “Diarrhoea, Grade 3-4 (%)” value [3, 4] was 6.9%, the “Global toxicity, Grade 0-2 (%)” value [3, 4] was 84.6% and the “Global toxicity, Grade 3-4 (%)” value [3, 4] was 15.3%. For the same compound, the “Haematological toxicity, Grade 0-2 (%)” value [3, 4] was 98.4%, the “Haematological toxicity, Grade 3-4 (%)” value [3, 4] was 1.3% and the “Hand-foot syndrome, Grade 0-2 (%)” value [3, 4] was 91.4%. For the same compound, the “Hand-foot syndrome, Grade 3-4 (%)” value [3, 4] was 8.3%, the “Mucositis, Grade 0-2 (%)” value [3, 4] was 98.7% and the “Mucositis, Grade 3-4 (%)” value [3, 4] was 1.1%. For the same compound, the “Vomiting, Grade 0-2 (%)” value [3, 4] was 98.7% and the “Vomiting, Grade 3-4 (%)” value [3, 4] was 0.9%.
In the case of “bevacizumab: given with capecitabine in one QUASAR2 arm (7.5 mg/kg every three weeks)”, the “higher incidence of hypertension and proteinuria” value ([3]; QUASAR2, capecitabine plus bevacizumab arm versus capecitabine alone) is reported as about 10 fold.
